According to the NIST ThermoML archive (doi:10.1021/je700021f):
± gives the expanded uncertainty stated by the source.

Experiment: xn = mol fraction of the nth substance listed
Details: 101 kPa, Liquid, Pulse-echo method

CCCCCCCCCCl [1-chlorononane] + CCCCCCCCC
speed of sound [m/s]
Details | x2 = 0 | x2 = 0.1 | x2 = 0.3 | x2 = 0.5 | x2 = 0.7 | x2 = 0.8 | x2 = 0.85 | x2 = 0.9
293.15 K | 1297.2 ± 3.4 | 1283.1 ± 3.3 | 1268.5 ± 3.3 | 1254.2 ± 3.3 | 1243.5 ± 3.3 | 1232.8 ± 3.3 | 1231.8 ± 3.2 | 1222.6 ± 3.2
298.15 K | 1278.2 ± 3.3 | 1264.2 ± 3.3 | 1249 ± 3.3 | 1235 ± 3.3 | 1223.5 ± 3.2 | 1212.9 ± 3.2 | 1211.9 ± 3.2 | 1203.3 ± 3.2
303.15 K | 1259.5 ± 3.3 | 1245.4 ± 3.3 | 1229.8 ± 3.2 | 1215.9 ± 3.2 | 1203.6 ± 3.2 | 1193 ± 3.2 | 1192.1 ± 3.2 | 1184.1 ± 3.2
308.15 K | 1240.9 ± 3.3 | 1226.7 ± 3.2 | 1210.6 ± 3.2 | 1197 ± 3.2 | 1183.9 ± 3.2 | 1173.3 ± 3.2 | 1172.4 ± 3.2 | 1165 ± 3.1
313.15 K | 1222.5 ± 3.2 | 1208.1 ± 3.2 | 1191.7 ± 3.2 | 1178.1 ± 3.2 | 1164.3 ± 3.1 | 1153.7 ± 3.1 | 1152.8 ± 3.1 | 1145.9 ± 3.1
318.15 K | 1204.3 ± 3.2 | 1189.7 ± 3.2 | 1172.8 ± 3.2 | 1159.3 ± 3.1 | 1144.9 ± 3.1 | 1134.2 ± 3.1 | 1133.4 ± 3.1 | 1126.9 ± 3.1
323.15 K | 1186.3 ± 3.2 | 1171.4 ± 3.2 | 1154.1 ± 3.1 | 1140.6 ± 3.1 | 1125.6 ± 3.1 | 1114.9 ± 3.1 | 1114 ± 3.1 | 1107.9 ± 3.1
328.15 K | 1168.4 ± 3.1 | 1153.2 ± 3.1 | 1135.6 ± 3.1 | 1122 ± 3.1 | 1106.5 ± 3.1 | 1095.6 ± 3 | 1094.7 ± 3 | 1088.9 ± 3
333.15 K | 1150.7 ± 3.1 | 1135.2 ± 3.1 | 1117.1 ± 3.1 | 1103.6 ± 3 | 1087.5 ± 3 | 1076.5 ± 3 | 1075.5 ± 3 | 1070 ± 3
338.15 K | 1133.2 ± 3.1 | 1117.2 ± 3.1 | 1098.9 ± 3 | 1085.2 ± 3 | 1068.7 ± 3 | 1057.5 ± 3 | 1056.4 ± 3 | 1051.2 ± 3
343.15 K | 1115.9 ± 3.1 | 1099.4 ± 3 | 1080.7 ± 3 | 1066.9 ± 3 | 1050 ± 3 | 1038.6 ± 3 | 1037.4 ± 3 | 1032.4 ± 2.9
348.15 K | 1098.8 ± 3 | 1081.8 ± 3 | 1062.7 ± 3 | 1048.7 ± 3 | 1031.5 ± 2.9 | 1019.8 ± 2.9 | 1018.5 ± 2.9 | 1013.7 ± 2.9
353.15 K | 1081.9 ± 3 | 1064.2 ± 3 | 1044.9 ± 3 | 1030.6 ± 2.9 | 1013.1 ± 2.9 | 1001.1 ± 2.9 | 999.7 ± 2.9 | 995 ± 2.9
358.15 K | 1065.1 ± 3 | 1046.8 ± 3 | 1027.2 ± 2.9 | 1012.6 ± 2.9 | 994.9 ± 2.9 | 982.6 ± 2.9 | 981 ± 2.9 | 976.3 ± 2.9
363.15 K | 1048.5 ± 3 | 1029.5 ± 2.9 | 1009.6 ± 2.9 | 994.7 ± 2.9 | 976.8 ± 2.9 | 964.2 ± 2.8 | 962.4 ± 2.8 | 957.8 ± 2.8
368.15 K | 1032.2 ± 2.9 | 1012.3 ± 2.9 | 992.2 ± 2.9 | 976.9 ± 2.9 | 958.9 ± 2.8 | 945.8 ± 2.8 | 943.9 ± 2.8 | 939.2 ± 2.8
373.15 K | 1015.9 ± 2.9 | 995.2 ± 2.9 | 974.9 ± 2.9 | 959.2 ± 2.8 | 941.1 ± 2.8 | 927.7 ± 2.8 | 925.5 ± 2.8 | 920.7 ± 2.8
378.15 K | 999.1 ± 2.9 | 978.3 ± 2.9 | 957.8 ± 2.8 | 941.6 ± 2.8 | 923.5 ± 2.8 | 909.6 ± 2.8 | 907.2 ± 2.8 | 902.3 ± 2.8
383.15 K | 982.7 ± 2.9 | 961.5 ± 2.8 | 940.8 ± 2.8 | 924.1 ± 2.8 | 906 ± 2.8 | 891.6 ± 2.7 | 889 ± 2.7 | 883.9 ± 2.7
388.15 K | 966.4 ± 2.8 | 944.8 ± 2.8 | 924 ± 2.8 | 906.7 ± 2.8 | 888.7 ± 2.7 | 873.8 ± 2.7 | 870.9 ± 2.7 | 865.6 ± 2.7
393.15 K | 950.3 ± 2.8 | 928.3 ± 2.8 | 907.3 ± 2.8 | 889.4 ± 2.7 | 871.5 ± 2.7 | 856.1 ± 2.7 | 852.9 ± 2.7 | 847.3 ± 2.7
398.15 K | 934.3 ± 2.8 | 911.8 ± 2.8 | 890.7 ± 2.7 | 872.1 ± 2.7 | 854.5 ± 2.7 | 838.5 ± 2.7 | 835 ± 2.7 | 829.1 ± 2.7
403.15 K | 918.4 ± 2.8 | 895.5 ± 2.7 | 874.3 ± 2.7 | 855 ± 2.7 | 837.6 ± 2.7 | 821 ± 2.7 | 817.2 ± 2.6 | 810.9 ± 2.6
408.15 K | 902.6 ± 2.8 | 879.3 ± 2.7 | 858 ± 2.7 | 838 ± 2.7 | 820.9 ± 2.6 | 803.6 ± 2.6 | 799.5 ± 2.6 | 792.7 ± 2.6
413.15 K | 887 ± 2.7 | 863.3 ± 2.7 | 841.9 ± 2.7 | 821.1 ± 2.6 | 804.3 ± 2.6 | 786.3 ± 2.6 | 781.9 ± 2.6 | 774.6 ± 2.6
418.15 K | 871.4 ± 2.7 | 847.4 ± 2.7 | 825.9 ± 2.7 | 804.3 ± 2.6 | 787.8 ± 2.6 | 769.2 ± 2.6 | 764.4 ± 2.6 | 756.6 ± 2.6
423.15 K | 856 ± 2.7 | 831.5 ± 2.6 | 810 ± 2.6 | 787.5 ± 2.6 | 771.6 ± 2.6 | 752.2 ± 2.6 | 747 ± 2.6 | 738.6 ± 2.5
